The text below walks through data of ChEMBL document CHEMBL3507680, “University of Dundee, Gates Library screen for HepG2 cell viability”.

The data set in a line: Human HepG2 cell viability assay in 384 well format. Format: toxicity, cell-based. Details: dose 125 nL, time 70.5 hour; concentration not given beside the values. The note with it: HepG2 cells, read-out: Inhibition.
For the compound `CC(C)Oc1cccc(C(=O)C2CCCN(C(=O)c3ccnn3C)C2)c1` (stereo unspecified), the cytotoxicity at 70.5 h is 19.8%.
Next, `O=C(NCCCn1cccn1)C1CCC(=O)N(Cc2ccccc2F)C1` (stereo unspecified): 4.27%; `CCN(C(=O)c1nc2c(s1)CCCN2c1ccc(C)nn1)C(C)C`: -3.47%; `CC(C)CCC(=O)N1C[C@H]2CCN[C@H]2C1`: -3.29%.
The value for `Cc1csc(NC(=O)[C@@H]2C[C@H]3[C@H](CCN3S(C)(=O)=O)O2)n1` was -1.16%.
Next, `Cc1nocc1C(=O)N1CCOC2(COCCN(CC3CC3)C2)C1` (stereo unspecified): -2.08%.
With `Cc1ccc(N2CC[C@H](OCC3CC3)[C@@H]2Cc2ccncc2)nn1`, the cytotoxicity at 70.5 h is -4.81%.
On to `O=C(CC(F)(F)F)N1C[C@H]2CCN[C@H]2C1`, for which the cytotoxicity at 70.5 h was -2.74%.
The value for `COCc1cncc2c1CCN(C(=O)c1cscn1)C2` was 20.4%; that for `CC(=O)N1CCC2(CC1)CN(CC1CC1)c1ccc(F)cc12` was 1.47%; that for `CN(C)C(=O)[C@H]1CCS(=O)(=O)[C@@H]2CN(c3ncccn3)C[C@H]12` was -4.18%.
The value for `CS(=O)(=O)NCc1ncn2c1CN(C(=O)C1CCCO1)CCC2` (stereo unspecified) was 0.98%.
The value for `COc1cc(N2C[C@@H]3COC[C@@H](Cc4nnc(C)o4)[C@@H]3C2)ncn1` was -0.141%; that for `Cn1c2c(c(=O)n1C)CN(C(=O)c1ccncc1F)CCC2` was 5.23%; that for `Cn1c2c(c(=O)n1C)CN(C(=O)c1cccc(F)c1)CCC2` was 1.87%.
Turning to `CCOc1ncnc2c1CCN(S(=O)(=O)c1ccccc1)CC2`, the cytotoxicity at 70.5 h was -14.4%.
The value for `CCOCC1CN(S(=O)(=O)c2cccc(C)c2)Cc2nccn2C1` (stereo unspecified) was -8.99%; that for `CCOCC1CN(S(=O)(=O)Cc2ccccc2)Cc2nccn2C1` (stereo unspecified) was -3.22%.
The value for `CC(C)n1c2ccccc2c2c1cc(C(=O)N(C)C)n2C(=O)N(C)C` was -0.266%.
The value for `CS(=O)(=O)N1C[C@H]2N(c3ncccn3)CCC[C@@]2(C(=O)NCC2CC2)C1` was -7.17%.
For `O=C1CCCN1Cc1nnc2n1CCCN(C(=O)c1ccc[nH]1)C2`, the cytotoxicity at 70.5 h was 5.33%.
The value for `COCCN(C)C(C(=O)O)c1ccc(F)c(Cl)c1` (stereo unspecified) was 30.8%.
The value for `O=C(O)c1cc(-c2cncnc2)cc(S(=O)(=O)N2CCCCCC2)c1` was -10.5%.
Next, `O=C(O)CCc1cn(C2CCN(c3ncccc3Cl)CC2)nn1`: 7.14%.
For the compound `Cc1cccc(C)c1OCC(C)Nc1nc(N)nc2c1CCNC2` (stereo unspecified), the cytotoxicity at 70.5 h was -11.5%.
The value for `CCCc1ccc(CN2CCC3(CCC(=O)N(CCCOC)C3)CC2)o1` was 20.6%.
The value for `Cc1nc(CN2C[C@@H](CN3CCOCC3)[C@@H](CO)C2)c2ccccn12` was 16.5%; that for `Nc1ccnc(N2CCCC(CCc3ccccc3)(C(=O)O)C2)n1` (stereo unspecified) was -3.28%.
The value for `CS(=O)(=O)N1C[C@@H]2CC[C@H](C1)N(CCC(=O)NCc1ccccc1F)C2` was 21.2%; that for `CCCC(Cn1cnc(-c2ccccc2)c1-c1cncn1CC)N(C)C` (stereo unspecified) was -0.815%.
Regarding `CN(CCc1ccccn1)C(=O)C(c1cccnc1)N1CCOCC1` (stereo unspecified), the cytotoxicity at 70.5 h was -1.97%.
With `Cc1nc(C)c(C)c(N(C)CCCc2nccn2C)n1`, the cytotoxicity at 70.5 h is -8.93%.
On to `CO[C@@H]1c2ccccc2C2(CCN(C(=O)CNC(=O)C(C)C)CC2)[C@H]1O`, for which the cytotoxicity at 70.5 h was -6.67%.
Take `O=C(Cc1ccsc1)N1CCCC(CNS(=O)(=O)Cc2ccccc2)C1` (stereo unspecified): the cytotoxicity at 70.5 h was -9.34%.
The value for `CCCSc1ncc(-c2nccn2CCC(N)=O)cn1` was -13.6%; that for `COc1ccc(-n2cc(CCO)cn2)cc1C(N)=O` was -14.7%; that for `O=C(c1ccc2nccnc2c1)N1CCN(CCO)[C@@H]2CS(=O)(=O)C[C@@H]21` was -9.05%.
Next, `CN(Cc1ccsc1)c1nc(-c2ccccn2)nc2c1CCNCC2`: -9.47%; `O=C(CCc1cc2n(n1)CCCN(CCc1ccccc1)C2)NC1CC1`: -11%.
The value for `CC(=O)N[C@@H]1CN(C(=O)c2ccncc2)C[C@H]1c1ccc(C)cc1` was -3.8%.
Turning to `O=C1CCCCN1CCc1nc(C2(c3ccc(F)cc3)CCOC2)no1` (stereo unspecified), the cytotoxicity at 70.5 h amounted to 12.7%.
The value for `O=C(CCC1CCCN(S(=O)(=O)C2CC2)C1)Nc1ccc(Cl)cc1` (stereo unspecified) was 34.5%.
Turning to `CC(C)=CCN1CC2(CCN(C(=O)CCn3ccnc3C)CC2)CC1=O`, the cytotoxicity at 70.5 h was 0.368%.
Next, `CCN(CC)C(=O)[C@@H]1C[C@@H](NC(=O)c2cccc(N(C)C)c2)CN1C`: 26.1%; `COc1ccccc1OC1CCN(c2nc(N)nc3[nH]cnc23)CC1`: 2.92%; `CC[C@H](CO)NC(=O)c1coc(COc2ccccc2F)n1`: 2.14%.
The value for `CCOc1ccc(C(=O)N2C[C@H]3CC[C@@H]2CN(C)C3)cc1OCC` was -14.6%; that for `Cc1cc(C)c2c(N3CCC(C(=O)N4CCOCC4)CC3)ncnc2n1` was 20.2%.
The value for `CC1(C)OC(=O)N(CCCOc2ccc(F)cc2)C1=O` was -11.6%; that for `CCC1CN(C(=O)c2ncccc2O)CCC(=O)N1Cc1ccccc1` (stereo unspecified) was -0.966%.
For `Cc1nc2sccn2c1C(=O)N1CCc2c(nc(N(C)C)[nH]c2=O)C1`, the cytotoxicity at 70.5 h worked out at 1.53%.
Consider `COc1ccc(Cc2ncc3c(n2)CN(C(=O)C(C)(C)C)C3)cc1`, for which the cytotoxicity at 70.5 h was -1.36%.
The value for `CCN1CC(C(=O)NCc2ccc3c(c2)nc(C)n3C)CCC1=O` (stereo unspecified) was -13.6%; that for `CCc1c(C)nn(CC(=O)NC(C(=O)O)c2c(C)n[nH]c2C)c1C` (stereo unspecified) was -7.94%; that for `CC(C)(CN1CCOCC1)CN1CCC(Cc2cccc(CO)c2)C1` (stereo unspecified) was 17.8%.
The value for `COc1nc2c(cc1C(=O)NC(C)Cc1cnccn1)CCC2` (stereo unspecified) was -7.71%.
The value for `O=C(NCCNc1cccnc1)C(c1cccnc1)N1CCCC1` (stereo unspecified) was -9.35%; that for `COCCN(Cc1ccccc1Cl)c1nc(CCN)nc2ccccc12` was -6.84%; that for `Cc1cc(C)cc(CCC(=O)NC(C)c2nnn[nH]2)c1` (stereo unspecified) was -2.97%.
In the case of `Cc1cn(CC(=O)N(C)Cc2cccc3ncccc23)c(=O)[nH]c1=O`, the cytotoxicity at 70.5 h was found to be 6.82%.
The value for `CCc1noc(CN(CCc2ccccc2)C2CCN(C)CC2)n1` was 25.9%; that for `COCc1nc(NCC2CCS(=O)(=O)C2)c2cnn(C)c2n1` (stereo unspecified) was -7.96%; that for `CN(CCO)Cc1cc(Cl)ccc1OCC(O)CN1CCCCCC1` (stereo unspecified) was -14.1%.
Next, `COc1cccc(-c2cc(C(=O)NCCCC(F)(F)F)[nH]n2)c1`: 30.9%; `O=C(CN1CCOC(c2ccc(Cl)c(Cl)c2)C1)NCc1ccco1` (stereo unspecified): 3.47%; `CCC(O)Cn1nc(CCSC)nc1-c1ccc2c(c1)OCCO2` (stereo unspecified): 15.5%.
Next, `Cc1cnc(N2CCc3c(CNc4ccnc(C)n4)cncc3C2)nc1`: 18.6%; `Cn1cc(C(=O)NCc2cncc3c2CCN(CC2CC2)C3)cn1`: 17.9%.
With `CC(C)N(C)Cc1cncc2c1CCN(CC(=O)N(C)C)C2`, the cytotoxicity at 70.5 h came to 20%.
`CN(C)CCN1C(=O)CCC12CCCN(C(=O)c1ccncc1F)C2` (stereo unspecified): the cytotoxicity at 70.5 h came out at 15.9%.
Take `Cn1cncc1C(=O)N1CCOC2(COCCN(CC3CC3)C2)C1` (stereo unspecified): the cytotoxicity at 70.5 h was -1.4%.
Next, `CCOCc1cncc2c1CCN(C(=O)c1cscn1)C2`: -4.56%; `CC(C)COCc1cncc2c1CCN(C(=O)c1cscn1)C2`: -2.6%; `CC1c2ncc(Cn3cccn3)n2CCN1Cc1ccc(F)cc1` (stereo unspecified): -2.85%.
The value for `COCCN1C(=O)C2(CCN(CC3CC3)CC2)c2ccccc21` was 0.205%; that for `c1cnc(N2C[C@H]3CCN(CC4CC4)C[C@H]3C2)cn1` was 3.82%; that for `CC1COC2(CCN(C(=O)Cc3ccncc3)CC2)C1` (stereo unspecified) was -0.819%.
Regarding `N#Cc1ccc(N2CCCC3(CCN(c4cncnc4)C3=O)C2)nc1` (stereo unspecified), the cytotoxicity at 70.5 h was 7.49%.
Turning to `O=C(C1CC=CC1)N1C[C@H]2CN(Cc3ccncc3)C(=O)[C@H]2C1`, the cytotoxicity at 70.5 h came out at 2.42%.
The value for `CCCN1CCC(c2nc3ccc(C)cn3n2)CC1` was -6.41%.
The value for `Cc1csc(CN2CCC3(CC2)COC(COCC2CC2)C3)n1` (stereo unspecified) was -0.893%; that for `CCCN1CCC(c2nc3ccc(-c4cccc(F)c4)cn3n2)CC1` was -7.17%.
Regarding `Cc1noc(C)c1CN1CCc2ncnc(-c3ccoc3)c2CC1`, the cytotoxicity at 70.5 h was found to be 15.5%.
Next, `Cc1noc(C)c1CN1CCc2ncnc(-c3ccccc3)c2CC1`: 18.5%; `CN(C)CCN1C[C@@H]2CN(S(=O)(=O)c3ccccc3)C[C@@H]2C1=O`: -0.863%; `Cc1noc(C)c1CN1CCC2(CC1)C(c1cnn(C)c1)CC(=O)N2C` (stereo unspecified): -7.83%.
The value for `CNC(=O)N1CCC2(CC1)c1ncc(C)n1CCN2C` was -0.582%.
The value for `N#Cc1ccc(N2CCC3(CCC(=O)N3CCN3CCCC3)CC2)nc1` was -9.44%; that for `CN(C)CCN1C(=O)C2(CCN(CC3CC3)CC2)c2ccccc21` was -4.59%; that for `CCN1C(=O)C2(CCN(CCN(C)C)CC2)c2ccccc21` was 19.9%.
With `CC1c2ncc(Cn3cccn3)n2CCN1Cc1ccccn1` (stereo unspecified), the cytotoxicity at 70.5 h was -1.75%.
For `c1cc(CN2C[C@@H]3OCCN(CC4CC4)[C@@H]3C2)n[nH]1`, the cytotoxicity at 70.5 h was -7.71%.
The value for `Cc1noc(C)c1CN1CCc2ncnc(-c3ccncc3)c2CC1` was 42.6%; that for `O=C(C1CCC2(CCN(Cc3cccnc3)CC2)CO1)N1CCCC1` (stereo unspecified) was -7.42%.
The value for `Cn1cnc(S(=O)(=O)N2CC3(CCN(Cc4ccncc4)C3)C2)c1` was -6.66%; that for `Cc1cc(C(=O)N2CCc3nc(N4CCOCC4)nc(C)c3C2)c(C)o1` was -6.78%.
